Reference: patent US20120252741A1, “NOVEL SEMI-SYNTHETIC GLYCOPEPTIDES AS ANTIBACTERIAL AGENTS” (priority 2008, published 2012)
Values after ≈ are worked out from the molar mass of the structure shown. Where two headings read alike, the source gives them in different places.

Assays:
Format in all cases: cell-based
[1] = tested on: Staphylococcus epidermidis 835; experiment: MIC, broth microdilution, SE 835; settings: Staphylococcus epidermidis, 835, class symbols, read-out: MIC SE 835
Experimental: (§1) Antibacterial activity in vitro is investigated by broth microdilution method in Meuller-Hinton broth as recommended by NCCLS. All strains tested are clinical isolates either sensitive or resistant to natural glycopeptides. MIC values were determined using the CLSI-recommended broth microdilution procedure (Clinical and Laboratory Standards Institute, Methods for Dilution Antimicrobial Susceptibility Tests for Bacteria That Grow Aerobically; Approved Standard-Seventh Edition.). Automated liquid handlers (Multidrop 384, Labsystems, Helsinki, Finland; Biomek 2000 and Multimek 96, Beckman Coulter, Fullerton Calif.) were used to conduct serial dilutions and liquid transfers. The MIC value for vancomycin is given for comparison. The abbreviations for organisms tested are as follow: SA 100—Staphylococcus aureus 100 (ATCC 29213); SA 757—Staphylococcus aureus 757 (MRSA); SA 2012—Staphylococcus aureus 2012 (VISA); SE 835—Staphylococcus epidermidis 835; SE 831—Staphylococcus epidermidis 831 (MRSE); EFc 101—Enterococcus faecalis 101 (ATCC 29212); EFc 848—Enterococcus faecalis 848 (VRE, Van A); EFcm 800—Enterococcus faecium 800; EFcm 752—Enterococcus faecium 752 (VRE, Van A); SPNE 1195—Streptococcus pneumoniae 1195 (ATCC 49619); SPY 712—Streptococcus pyogenes 712.

[2] = tested on: Enterococcus faecalis 848 (VRE, Van A); experiment: MIC, broth microdilution, EFc 848; settings: VRE, Van A, class symbols, read-out: MIC E FC 848
Experimental: as §1

[3] = tested on: Enterococcus faecium 752 (VRE, Van A); experiment: MIC, broth microdilution, EFcm 752; settings: VRE, Van A, class symbols, read-out: MIC E FCM 752
Experimental: as §1

[4] = tested on: Staphylococcus aureus 757 (MRSA); experiment: MIC, broth microdilution, SA 757; settings: read-out: MIC SA 757
Experimental: as §1

[5] = tested on: Staphylococcus aureus 2012 (VISA); experiment: MIC, broth microdilution, SA 2012; settings: read-out: MIC SA 2012
Experimental: as §1

[6] = tested on: Streptococcus pneumoniae 1195 (ATCC 49619); experiment: MIC, broth microdilution, SPNE 1195; settings: Streptococcus pneumoniae, ATCC49619, class symbols, read-out: MIC S PNE 1195
Experimental: as §1

[7] = tested on: Enterococcus faecalis 101 (ATCC 29212); experiment: MIC, broth microdilution, EFc 101; settings: Enterococcus faecalis, ATCC29212, class symbols, read-out: MIC E FC 101
Experimental: as §1

[8] = tested on: Staphylococcus epidermidis 831 (MRSE); experiment: MIC, broth microdilution, SE 831; settings: Staphylococcus epidermidis, read-out: MIC SE 831
Experimental: as §1

[9] = tested on: Streptococcus pyogenes 712; experiment: MIC, broth microdilution, SPY 712; settings: Streptococcus pyogenes, 712, class symbols, read-out: MIC S PYO 712
Experimental: as §1

Enterococcus faecium 800 = experiment: MIC, broth microdilution, EFcm 800; settings: Enterococcus faecium, 800, class symbols, read-out: MIC E FCM 800
Experimental: as §1

[10] = tested on: Staphylococcus aureus 100 (ATCC 29213); experiment: MIC, broth microdilution, SA 100; settings: Staphylococcus aureus, ATCC29213, class symbols, read-out: MIC SA 100
Experimental: as §1

[11] = Table 2, in the presence of 0.002% Polysorbate 80
[12] = Table 2, in the presence of 0.002% Polysorbate 80, class symbols

Structure (SMILES) | MIC [1, 11] [mg/L] | MIC [2, 11] [mg/L] | MIC [3, 11] [mg/L] | MIC [4, 12] [mg/L] | MIC [5, 12] [mg/L] | MIC [6, 11] [mg/L] | MIC [7, 11] [mg/L] | MIC [8, 12] [mg/L] | MIC [9, 11] [mg/L] | MIC (Enterococcus faecium 800; [11]) [mg/L] | MIC [10, 11] [mg/L] | MIC ([1]; Table 1) [mg/L] | MIC ([2]; Table 1) [mg/L] | MIC ([3]; Table 1) [mg/L] | MIC ([4]; Table 1, class symbols) [mg/L] | MIC ([5]; Table 1, class symbols) [mg/L] | MIC ([6]; Table 1) [mg/L] | MIC ([7]; Table 1) [mg/L] | MIC ([8]; Table 1, class symbols) [mg/L] | MIC ([9]; Table 1) [mg/L] | further results
CN[C@H](CC(C)C)C(=O)N[C@H]1C(=O)N[C@@H](CC(=O)NC(=O)c2ccc(OCCCN)c(OCCCN)c2)C(=O)N[C@H]2C(=O)N[C@H]3C(=O)N[C@H](C(=O)N[C@H](C(=O)NC4C5CC6CC(C5)CC4C6)c4cc(O)cc(O)c4-c4cc3ccc4O)[C@H](O)c3ccc(c(Cl)c3)Oc3cc2cc(c3O[C@@H]2O[C@H](CO)[C@@H](O)[C@H](O)[C@H]2O[C@H]2C[C@](C)(N)[C@H](O)[C@H](C)O2)Oc2ccc(cc2Cl)[C@H]1O (stereo partly shown) [Compound 166] | 0.5 to 1 | > 16 | 2 to 4 | 0.01 to 0.5 | 1 to 2 | 0.01 to 0.5 | 0.01 to 0.5 | 0.01 to 0.5 | 0.01 to 0.5 | 0.01 to 0.5 | 0.01 to 0.5 |  |  |  |  |  |  |  |  |  | 
CCOCCOCCOc1ccc(S(=O)(=O)NC(=O)C[C@@H]2NC(=O)[C@H](NC(=O)[C@@H](CC(C)C)NC)[C@H](O)c3ccc(c(Cl)c3)Oc3cc4cc(c3O[C@@H]3O[C@H](CN)[C@@H](O)[C@H](O)[C@H]3O)Oc3ccc(cc3Cl)[C@@H](O)[C@@H]3NC(=O)[C@H](NC(=O)[C@@H]4NC2=O)c2ccc(O)c(c2)-c2c(O)cc(O)cc2[C@@H](C(=O)NC2C4CC5CC(C4)CC2C5)NC3=O)cc1 (stereo partly shown) [Compound 103] |  |  |  |  |  |  |  |  |  |  |  | 0.01 to 0.5 (≈ 0.00585 to 0.292 µM) | 2 to 4 (≈ 1.17 to 2.34 µM) | 1 to 2 (≈ 0.585 to 1.17 µM) | 0.01 to 0.5 (≈ 0.00585 to 0.292 µM) | 1 to 2 (≈ 0.585 to 1.17 µM) | 0.5 to 1 (≈ 0.292 to 0.585 µM) | 0.01 to 0.5 (≈ 0.00585 to 0.292 µM) | 0.01 to 0.5 (≈ 0.00585 to 0.292 µM) | 0.01 to 0.5 (≈ 0.00585 to 0.292 µM) | MIC (Enterococcus faecium 800; Table 1): 0.01 to 0.5 mg/L (≈ 0.00585 to 0.292 µM); MIC ([10]; Table 1): 0.5 to 1 mg/L (≈ 0.292 to 0.585 µM)
CCCCCCC(C)C(=O)NC(=O)C[C@@H]1NC(=O)[C@H](NC(=O)[C@@H](CC(C)C)NC)[C@H](O)c2ccc(c(Cl)c2)Oc2cc3cc(c2O[C@@H]2O[C@H](CO)[C@@H](O)[C@H](O)[C@H]2O[C@H]2C[C@](C)(N)[C@H](O)[C@H](C)O2)Oc2ccc(cc2Cl)[C@@H](O)[C@@H]2NC(=O)[C@H](NC(=O)[C@@H]3NC1=O)c1ccc(O)c(c1)-c1c(O)cc(O)cc1[C@@H](C(=O)NC1C3CC4CC(C3)CC1C4)NC2=O (stereo partly shown) [Compound 46] | 0.01 to 0.5 | 2 to 4 | 0.01 to 0.5 | 0.01 to 0.5 | 2 to 4 | 0.01 to 0.5 | 0.01 to 0.5 | 0.01 to 0.5 | 0.01 to 0.5 | 0.01 to 0.5 | 0.01 to 0.5 |  |  |  |  |  |  |  |  |  | 
CNCCOc1cc(C(=O)NC(=O)C[C@@H]2NC(=O)[C@H](NC(=O)[C@@H](CC(C)C)NC)[C@H](O)c3ccc(c(Cl)c3)Oc3cc4cc(c3O[C@@H]3O[C@H](CO)[C@@H](O)[C@H](O)[C@H]3O)Oc3ccc(cc3Cl)[C@@H](O)[C@@H]3NC(=O)[C@H](NC(=O)[C@@H]4NC2=O)c2ccc(O)c(c2)-c2c(O)cc(O)cc2[C@@H](C(=O)NC2C4CC5CC(C4)CC2C5)NC3=O)cc(OCCNC)c1OCCNC (stereo partly shown) [Compound 162] | 0.5 to 1 | > 16 | 8 to 16 | 1 to 2 | 2 to 4 | 1 to 2 | 1 to 2 | 0.01 to 0.5 | 0.01 to 0.5 | 0.5 to 1 | 2 to 4 |  |  |  |  |  |  |  |  |  | 
CCCCCCCCC(=O)NC(=O)C[C@@H]1NC(=O)[C@H](NC(=O)[C@@H](CC(C)C)NC)[C@H](O)c2ccc(c(Cl)c2)Oc2cc3cc(c2O[C@@H]2O[C@H](CO)[C@@H](O)[C@H](O)[C@H]2O[C@H]2C[C@](C)(N)[C@H](O)[C@H](C)O2)Oc2ccc(cc2Cl)[C@@H](O)[C@@H]2NC(=O)[C@H](NC(=O)[C@@H]3NC1=O)c1ccc(O)c(c1)-c1c(O)cc(O)cc1[C@@H](C(=O)NC1C3CC4CC(C3)CC1C4)NC2=O (stereo partly shown) [Compound 42] |  |  |  |  |  |  |  |  |  |  |  | 0.01 to 0.5 (≈ 0.0058 to 0.29 µM) | 1 to 2 (≈ 0.58 to 1.16 µM) | 0.01 to 0.5 (≈ 0.0058 to 0.29 µM) | 0.01 to 0.5 (≈ 0.0058 to 0.29 µM) | 1 to 2 (≈ 0.58 to 1.16 µM) | 0.01 to 0.5 (≈ 0.0058 to 0.29 µM) | 0.01 to 0.5 (≈ 0.0058 to 0.29 µM) | 0.01 to 0.5 (≈ 0.0058 to 0.29 µM) | 0.01 to 0.5 (≈ 0.0058 to 0.29 µM) | MIC (Enterococcus faecium 800; Table 1): 0.01 to 0.5 mg/L (≈ 0.0058 to 0.29 µM); MIC ([10]; Table 1): 0.01 to 0.5 mg/L (≈ 0.0058 to 0.29 µM)
CN[C@H](CC(C)C)C(=O)N[C@H]1C(=O)N[C@@H](CC(=O)NS(=O)(=O)c2ccc(OCCOCCOC)cc2)C(=O)N[C@H]2C(=O)N[C@H]3C(=O)N[C@H](C(=O)N[C@H](C(=O)NC4C5CC6CC(C5)CC4C6)c4cc(O)cc(O)c4-c4cc3ccc4O)[C@H](O)c3ccc(c(Cl)c3)Oc3cc2cc(c3O[C@@H]2O[C@H](CN)[C@@H](O)[C@H](O)[C@H]2O)Oc2ccc(cc2Cl)[C@H]1O (stereo partly shown) [Compound 102] |  |  |  |  |  |  |  |  |  |  |  | 0.01 to 0.5 (≈ 0.00589 to 0.295 µM) | 2 to 4 (≈ 1.18 to 2.36 µM) | 0.5 to 1 (≈ 0.295 to 0.589 µM) | 0.01 to 0.5 (≈ 0.00589 to 0.295 µM) | 0.5 to 1 (≈ 0.295 to 0.589 µM) | 0.01 to 0.5 (≈ 0.00589 to 0.295 µM) | 0.01 to 0.5 (≈ 0.00589 to 0.295 µM) | 0.01 to 0.5 (≈ 0.00589 to 0.295 µM) | 0.01 to 0.5 (≈ 0.00589 to 0.295 µM) | MIC (Enterococcus faecium 800; Table 1): 0.01 to 0.5 mg/L (≈ 0.00589 to 0.295 µM); MIC ([10]; Table 1): 0.01 to 0.5 mg/L (≈ 0.00589 to 0.295 µM)
CCCCCCOc1ccc(S(=O)(=O)NC(=O)C[C@@H]2NC(=O)[C@H](NC(=O)[C@@H](CC(C)C)NC)[C@H](O)c3ccc(c(Cl)c3)Oc3cc4cc(c3O[C@@H]3O[C@H](CO)[C@@H](O)[C@H](O)[C@H]3O)Oc3ccc(cc3Cl)[C@@H](O)[C@@H]3NC(=O)[C@H](NC(=O)[C@@H]4NC2=O)c2ccc(O)c(c2)-c2c(O)cc(O)cc2[C@@H](C(=O)NC2C4CC5CC(C4)CC2C5)NC3=O)cc1 (stereo partly shown) [Compound 118] |  |  |  |  |  |  |  |  |  |  |  | 1 to 2 (≈ 0.595 to 1.19 µM) | 2 to 4 (≈ 1.19 to 2.38 µM) | 1 to 2 (≈ 0.595 to 1.19 µM) | 1 to 2 (≈ 0.595 to 1.19 µM) | > 16 | 0.01 to 0.5 (≈ 0.00595 to 0.298 µM) | 0.5 to 1 (≈ 0.298 to 0.595 µM) | 1 to 2 (≈ 0.595 to 1.19 µM) | 0.01 to 0.5 (≈ 0.00595 to 0.298 µM) | MIC (Enterococcus faecium 800; Table 1): 0.01 to 0.5 mg/L (≈ 0.00595 to 0.298 µM); MIC ([10]; Table 1): 2 to 4 mg/L (≈ 1.19 to 2.38 µM)
CCOc1ccc(C(=O)NC(=O)C[C@@H]2NC(=O)[C@H](NC(=O)[C@@H](CC(C)C)NC)[C@H](O)c3ccc(c(Cl)c3)Oc3cc4cc(c3O[C@@H]3O[C@H](CO)[C@@H](O)[C@H](O)[C@H]3O[C@H]3C[C@](C)(N)[C@H](O)[C@H](C)O3)Oc3ccc(cc3Cl)[C@@H](O)[C@@H]3NC(=O)[C@H](NC(=O)[C@@H]4NC2=O)c2ccc(O)c(c2)-c2c(O)cc(O)cc2[C@@H](C(=O)NC2C4CC5CC(C4)CC2C5)NC3=O)cc1 (stereo partly shown) [Compound 63] | 0.01 to 0.5 | 4 to 8 | 1 to 2 | 0.01 to 0.5 | 2 to 4 | 0.01 to 0.5 | 0.01 to 0.5 | 0.01 to 0.5 | 0.01 to 0.5 | 0.01 to 0.5 | 0.01 to 0.5 |  |  |  |  |  |  |  |  |  | 
